Measurements reported in the supplement of paper PMC10307832.

Tests used:
Assay in all cases: relative viability (nuclei count vs DMSO), 5 days (fraction); higher = more cells survive
201T = test system: 201T
Summary of the method: (§1)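 Lung cancer cell lines in 1536-well plates got either a single drug or a fixed anchor-drug dose together with five library-drug doses (not always all listed) in √10 steps, by pin tool, on the day after seeding. Nuclei were counted after 5 days, and relative viability is the treated-to-vehicle ratio of nuclei counts. Values are medians of duplicate plates.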

NCI-H2085 = test system: NCI-H2085
Summary of the method: as §1

LOU-NH91 = test system: LOU-NH91
Summary of the method: as §1

HCC-44 = test system: HCC-44
Summary of the method: as §1

NCI-H1734 = test system: NCI-H1734
Summary of the method: as §1

RERF-LC-KJ = test system: RERF-LC-KJ
Summary of the method: as §1

NCI-H2405 = test system: NCI-H2405
Summary of the method: as §1

SW 900 = test system: SW 900
Summary of the method: as §1

NCI-H520 = test system: NCI-H520
Summary of the method: as §1

NCI-H2347 = test system: NCI-H2347
Summary of the method: as §1

NCI-H2170 = test system: NCI-H2170
Summary of the method: as §1

NCI-H1793 = test system: NCI-H1793
Summary of the method: as §1

NCI-H1650 = test system: NCI-H1650
Summary of the method: as §1

COR-L23 = test system: COR-L23
Summary of the method: as §1

ABC-1 = test system: ABC-1
Summary of the method: as §1

NCI-H3122 = test system: NCI-H3122
Summary of the method: as §1

NCI-H441 = test system: NCI-H441
Summary of the method: as §1

PC-14 = test system: PC-14
Summary of the method: as §1

NCI-H1993 = test system: NCI-H1993
Summary of the method: as §1

NCI-H647 = test system: NCI-H647
Summary of the method: as §1

EKVX = test system: EKVX
Summary of the method: as §1

EPLC-272H = test system: EPLC-272H
Summary of the method: as §1

NCI-H2023 = test system: NCI-H2023
Summary of the method: as §1

Q: With `Clc1ccc(Nc2nnc(Cc3ccncc3)c3ccccc23)cc1` [Vatalanib] + Cc1cc(Nc2cc(N3CCN(C)CC3)nc(Sc3ccc(NC(=O)C4CC4)cc3)n2)n[nH]1 [Tozasertib] (partner 0.1 µM) as the molecule, how does the relative viability (201T; first compound 0.04 µM) read?
A: 0.932

Q: What about the relative viability (201T; first compound 0.1265 µM) of the same molecule?
A: 0.943

Q: What about the relative viability (201T; first compound 0.4 µM) of the same molecule?
A: 0.985

Q: And the relative viability (201T; first compound 1.265 µM)?
A: 0.896

Q: What about the relative viability (201T; first compound 4 µM) of the same molecule?
A: 0.916

Q: And the relative viability (NCI-H2085; first compound 0.04 µM)?
A: 0.796

Q: And the relative viability (NCI-H2085; first compound 0.1265 µM)?
A: 0.831

Q: What about the relative viability (NCI-H2085; first compound 0.4 µM) of the same molecule?
A: 0.829

Q: What about the relative viability (NCI-H2085; first compound 1.265 µM) of the same molecule?
A: 0.744

Q: What about the relative viability (NCI-H2085; first compound 4 µM) of the same molecule?
A: 0.637

Q: And the relative viability (LOU-NH91; first compound 0.04 µM)?
A: 0.768

Q: What about the relative viability (LOU-NH91; first compound 0.1265 µM) of the same molecule?
A: 0.634

Q: And the relative viability (LOU-NH91; first compound 1.265 µM)?
A: 0.652

Q: And the relative viability (LOU-NH91; first compound 4 µM)?
A: 0.621

Q: What about the relative viability (HCC-44; first compound 0.04 µM) of the same molecule?
A: 1.1

Q: And the relative viability (HCC-44; first compound 0.1265 µM)?
A: 0.887

Q: And the relative viability (HCC-44; first compound 0.4 µM)?
A: 0.91

Q: What about the relative viability (HCC-44; first compound 1.265 µM) of the same molecule?
A: 0.907

Q: What about the relative viability (HCC-44; first compound 4 µM) of the same molecule?
A: 0.815

Q: And the relative viability (NCI-H1734; first compound 0.04 µM)?
A: 0.31

Q: And the relative viability (NCI-H1734; first compound 0.1265 µM)?
A: 0.232

Q: What about the relative viability (NCI-H1734; first compound 0.4 µM) of the same molecule?
A: 0.278

Q: And the relative viability (NCI-H1734; first compound 1.265 µM)?
A: 0.276

Q: And the relative viability (NCI-H1734; first compound 4 µM)?
A: 0.249

Q: And the relative viability (RERF-LC-KJ; first compound 0.04 µM)?
A: 0.602

Q: And the relative viability (RERF-LC-KJ; first compound 0.1265 µM)?
A: 0.555

Q: And the relative viability (RERF-LC-KJ; first compound 0.4 µM)?
A: 0.511

Q: What about the relative viability (RERF-LC-KJ; first compound 1.265 µM) of the same molecule?
A: 0.454

Q: And the relative viability (RERF-LC-KJ; first compound 4 µM)?
A: 0.436

Q: What about the relative viability (NCI-H2405; first compound 0.04 µM) of the same molecule?
A: 0.798

Q: What about the relative viability (NCI-H2405; first compound 0.1265 µM) of the same molecule?
A: 0.726

Q: What about the relative viability (NCI-H2405; first compound 1.265 µM) of the same molecule?
A: 0.627

Q: And the relative viability (NCI-H2405; first compound 4 µM)?
A: 0.663

Q: What about the relative viability (SW 900; first compound 0.1265 µM) of the same molecule?
A: 0.563

Q: And the relative viability (SW 900; first compound 0.4 µM)?
A: 0.68

Q: And the relative viability (SW 900; first compound 1.265 µM)?
A: 0.482

Q: What about the relative viability (SW 900; first compound 4 µM) of the same molecule?
A: 0.572

Q: What about the relative viability (NCI-H520; first compound 0.04 µM) of the same molecule?
A: 0.443

Q: What about the relative viability (NCI-H520; first compound 0.1265 µM) of the same molecule?
A: 0.385

Q: What about the relative viability (NCI-H520; first compound 0.4 µM) of the same molecule?
A: 0.467

Q: What about the relative viability (NCI-H520; first compound 1.265 µM) of the same molecule?
A: 0.443

Q: What about the relative viability (NCI-H520; first compound 4 µM) of the same molecule?
A: 0.422

Q: And the relative viability (NCI-H2347; first compound 0.04 µM)?
A: 0.462

Q: And the relative viability (NCI-H2347; first compound 0.1265 µM)?
A: 0.579

Q: And the relative viability (NCI-H2347; first compound 0.4 µM)?
A: 0.678

Q: What about the relative viability (NCI-H2347; first compound 1.265 µM) of the same molecule?
A: 0.61

Q: What about the relative viability (NCI-H2347; first compound 4 µM) of the same molecule?
A: 0.55

Q: And the relative viability (NCI-H2170; first compound 0.04 µM)?
A: 0.768

Q: What about the relative viability (NCI-H2170; first compound 0.1265 µM) of the same molecule?
A: 0.706

Q: And the relative viability (NCI-H2170; first compound 0.4 µM)?
A: 0.796

Q: What about the relative viability (NCI-H2170; first compound 1.265 µM) of the same molecule?
A: 0.677

Q: What about the relative viability (NCI-H2170; first compound 4 µM) of the same molecule?
A: 0.777

Q: What about the relative viability (NCI-H1793; first compound 0.04 µM) of the same molecule?
A: 0.342

Q: And the relative viability (NCI-H1793; first compound 0.1265 µM)?
A: 0.341

Q: And the relative viability (NCI-H1793; first compound 0.4 µM)?
A: 0.364

Q: What about the relative viability (NCI-H1793; first compound 1.265 µM) of the same molecule?
A: 0.276

Q: And the relative viability (NCI-H1793; first compound 4 µM)?
A: 0.329

Q: What about the relative viability (NCI-H1650; first compound 0.04 µM) of the same molecule?
A: 0.398

Q: What about the relative viability (NCI-H1650; first compound 0.1265 µM) of the same molecule?
A: 0.246

Q: And the relative viability (NCI-H1650; first compound 0.4 µM)?
A: 0.438

Q: And the relative viability (NCI-H1650; first compound 1.265 µM)?
A: 0.37

Q: What about the relative viability (NCI-H1650; first compound 4 µM) of the same molecule?
A: 0.425

Q: And the relative viability (COR-L23; first compound 0.04 µM)?
A: 0.232

Q: What about the relative viability (COR-L23; first compound 0.1265 µM) of the same molecule?
A: 0.194

Q: What about the relative viability (COR-L23; first compound 0.4 µM) of the same molecule?
A: 0.206

Q: And the relative viability (COR-L23; first compound 1.265 µM)?
A: 0.168

Q: And the relative viability (COR-L23; first compound 4 µM)?
A: 0.173

Q: What about the relative viability (ABC-1; first compound 0.04 µM) of the same molecule?
A: 0.184

Q: And the relative viability (ABC-1; first compound 0.1265 µM)?
A: 0.166

Q: And the relative viability (ABC-1; first compound 1.265 µM)?
A: 0.177

Q: What about the relative viability (ABC-1; first compound 4 µM) of the same molecule?
A: 0.207

Q: And the relative viability (NCI-H3122; first compound 0.04 µM)?
A: 0.401

Q: And the relative viability (NCI-H3122; first compound 0.1265 µM)?
A: 0.358

Q: And the relative viability (NCI-H3122; first compound 1.265 µM)?
A: 0.378

Q: And the relative viability (NCI-H3122; first compound 4 µM)?
A: 0.385

Q: What about the relative viability (NCI-H441; first compound 0.04 µM) of the same molecule?
A: 0.847

Q: And the relative viability (NCI-H441; first compound 0.1265 µM)?
A: 0.746

Q: And the relative viability (NCI-H441; first compound 0.4 µM)?
A: 0.643

Q: What about the relative viability (NCI-H441; first compound 1.265 µM) of the same molecule?
A: 0.659

Q: And the relative viability (NCI-H441; first compound 4 µM)?
A: 0.598

Q: And the relative viability (PC-14; first compound 0.04 µM)?
A: 0.625

Q: What about the relative viability (PC-14; first compound 0.1265 µM) of the same molecule?
A: 0.523

Q: And the relative viability (PC-14; first compound 1.265 µM)?
A: 0.51

Q: And the relative viability (PC-14; first compound 4 µM)?
A: 0.592

Q: And the relative viability (NCI-H1993; first compound 0.04 µM)?
A: 0.563

Q: And the relative viability (NCI-H1993; first compound 0.1265 µM)?
A: 0.566

Q: And the relative viability (NCI-H1993; first compound 0.4 µM)?
A: 0.608

Q: What about the relative viability (NCI-H1993; first compound 1.265 µM) of the same molecule?
A: 0.542

Q: What about the relative viability (NCI-H1993; first compound 4 µM) of the same molecule?
A: 0.592

Q: What about the relative viability (NCI-H647; first compound 0.04 µM) of the same molecule?
A: 0.3

Q: And the relative viability (NCI-H647; first compound 0.1265 µM)?
A: 0.262

Q: What about the relative viability (NCI-H647; first compound 0.4 µM) of the same molecule?
A: 0.352

Q: And the relative viability (NCI-H647; first compound 1.265 µM)?
A: 0.26

Q: And the relative viability (NCI-H647; first compound 4 µM)?
A: 0.259

Q: And the relative viability (EKVX; first compound 0.04 µM)?
A: 0.392

Q: What about the relative viability (EKVX; first compound 0.1265 µM) of the same molecule?
A: 0.363

Q: What about the relative viability (EKVX; first compound 0.4 µM) of the same molecule?
A: 0.427

Q: And the relative viability (EKVX; first compound 4 µM)?
A: 0.343

Q: And the relative viability (EPLC-272H; first compound 0.04 µM)?
A: 0.319

Q: What about the relative viability (EPLC-272H; first compound 0.1265 µM) of the same molecule?
A: 0.271

Q: And the relative viability (EPLC-272H; first compound 0.4 µM)?
A: 0.411

Q: What about the relative viability (EPLC-272H; first compound 1.265 µM) of the same molecule?
A: 0.324

Q: What about the relative viability (EPLC-272H; first compound 4 µM) of the same molecule?
A: 0.249

Q: What about the relative viability (NCI-H2023; first compound 0.04 µM) of the same molecule?
A: 0.374

Q: And the relative viability (NCI-H2023; first compound 0.1265 µM)?
A: 0.377

Q: And the relative viability (NCI-H2023; first compound 0.4 µM)?
A: 0.424

Q: And the relative viability (NCI-H2023; first compound 1.265 µM)?
A: 0.287

Q: And the relative viability (NCI-H2023; first compound 4 µM)?
A: 0.241
